Assay results taken from US9375000B2, “Pesticidal arylpyrrolidines” (Bayer Intellectual Property GmbH, priority 2011, dated 2016).

Experiments:
[1] = tested on: Cucurbit Leaf Beetle (Aulacophora femoralis); assay: Cucurbit leaf beetle (Aulacophora femoralis) cucumber leaf dip test; assay type: in vivo; details: after 7 days; for pest or weed control at 20 ppm / pest or weed control at 4 ppm: Aulacophora, foliar, 168 h, read-out: insecticidal activity; for pest or weed control at 4 ppm: active compound concentration 4 ppm
Procedure, shortened: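 Cucumber leaves dipped in compound formulated with DMF and polyoxyethylene alkyl phenyl ether, diluted in water, with ammonium salt or ammonium salt plus penetration enhancer at 1000 ppm added if necessary; dried leaves placed on sterilized soil with five second-instar larvae. Kept at 25° C; larval mortality counted after 7 days.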

[2] = tested on: mustard beetle larvae (Phaedon cochleariae); assay: Phaedon cochleariae test (PHAECO spray application); assay type: in vivo; details: application rate 500 g/ha; after 7 days
Experimental: To produce a suitable preparation of active compound, 1 part by weight of active compound is mixed with the stated amount of solvent and emulsifier, and the concentrate is diluted with emulsifier-containing water to the desired concentration. Chinese cabbage (Brassica pekinesis) leaf-disks are sprayed with a preparation of the active ingredient of the desired concentration. Once dry, the leaf disks are infested with mustard beetle larvae (Phaedon cochleariae). After 7 days mortality in % is determined. 100% means that all beetle larvae have been killed and 0% means that none of the beetle larvae have been killed.

[3] = tested on: fall armyworm larvae (Spodoptera frugiperda); assay: Spodoptera frugiperda test (SPODFR spray application); assay type: in vivo; details: application rate 500 g/ha; after 7 days
Experimental: To produce a suitable preparation of the active compound, 1 part by weight of active compound is mixed with the stated amount of solvent and emulsifier, and the concentrate is diluted with emulsifier-containing water to the desired concentration. Maize (Zea mais) leaf sections are sprayed with a preparation of the active ingredient of the desired concentration. Once dry, the leaf sections are infested with fall armyworm larvae (Spodoptera frugiperda). After 7 days mortality in % is determined. 100% means that all caterpillars have been killed and 0% means that none of the caterpillars have been killed.

[4] = tested on: two spotted spidermite (Tetranychus urticae), OP-resistant; assay: Tetranychus urticae test, OP-resistant (TETRUR spray application); assay type: in vivo; details: application rate 500 g/ha; after 6 days
Experimental: To produce a suitable preparation of active compound, 1 part by weight of active compound is mixed with the stated amount of solvent and emulsifier, and the concentrate is diluted with emulsifier-containing water to the desired concentration. French beans (Phaseolus vulgaris) which are heavily infested with all stages of the two spotted spidermite (Tetranychus urticae), are sprayed with a preparation of the active ingredient at the desired concentration. After 6 days mortality in % is determined. 100% means that all spider mites have been killed and 0% means that none of the spider mites have been killed.

[5] = log P by HPLC on reversed phase columns (EEC directive 79/831 Annex V.A8); assay type: physicochemical
Experimental: Calibration was done with not branched alkan2-ones (with 3 to 16 carbon atoms) with known log P-values (measurement of log P values using retention times with linear interpolation between successive alkanones). lambda-maX-values were determined using UV-spectra from 200 nm to 400 nm and the peak values of the chromatographic signals.

[6] = tested on: Tobacco Cutworm (Spodoptera litura) Larvae; assay: Tobacco cutworm (Spodoptera litura) larvae, sweet potato leaf dip test; assay type: in vivo; details: active compound concentration 20 ppm; dead larvae after 7 days
Procedure, shortened: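 Sweet potato leaves were dipped in DMF/emulsifier test solution at the set concentration and air-dried. Ten third-instar S. litura larvae were placed per dish at 25 °C, with fresh leaves added on days 2 and 4. Mortality was counted on day 7, given as % insecticidal activity averaged over two dishes.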

[7] = tested on: Two-Spotted Spider Mite (Tetranychus urticae); assay: Two-spotted spider mite (Tetranychus urticae) spray test on kidney bean; assay type: in vivo; details: Tetranychus urticae, 168 h, after 7 days, read-out: acaricidal activity; for pest or weed control at 20 ppm: active compound concentration 20 ppm
Procedure, shortened: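 Kidney bean plants at the two-leaf stage carried 50-100 adult mites and were sprayed one day later with compound in DMF/polyoxyethylene alkyl phenyl ether diluted in water. Ammonium salt and penetration enhancer at 1000 ppm were added if needed. Acaricidal activity (% mites killed) was scored after 7 days in a greenhouse.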

[8] = tested on: Larvae of Spodoptera litura; assay: Larvae of Spodoptera litura, method using artificial feeds; assay type: in vivo; details: Spodoptera litura, 168 h, artificial feed, after 7 days, read-out: insecticidal activity (pesticidal ratio); for pest or weed control at 20 ppm: active compound concentration 20 ppm; for pest or weed control at 4 ppm: active compound concentration 4 ppm
Procedure, shortened: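 Compound formulated in dimethylformamide with polyoxyethylene alkyl phenyl ether emulsifier, water-diluted and poured onto artificial diet. Five 3rd-instar Spodoptera litura larvae per cup, held at 25° C and 50-60% humidity. Mortality after 7 days expressed as pesticidal ratio.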

Ctenocephalides felis = assay: Test against Ctenocephalides felis (CTECFE), blood feeding; assay type: in vivo; details: Ctenocephalides felis, in Bos taurus, 48 h, read-out: activity (mortality)
Experimental: (§1) Solvent: dimethyl sulfoxide
To produce a suitable preparation of active compound, 10 mg of active compound are dissolved in 0.5 ml solvent, and the concentrate is diluted with cattle blood to the desired concentration. Approximately 20 adult unfed (Ctenocepahlides felis) are placed in flea chambers. The blood chamber, sealed with parafilm on the bottom, are filled with cattle blood supplied with compound solution and placed on top of the flea chamber, so that the fleas are able to suck the blood. The blood chamber is heated to 37° C. whereas the flea chamber is kept at room temperature.
After 2 days mortality in % is determined. 100% means that all the fleas have been killed; 0% means that none of the fleas have been killed.

[9] = tested on: Lucilia cuprina 1st instar larvae; assay: Test against Lucilia cuprina larvae; assay type: in vivo; details: 48 h, read-out: activity (larval mortality)
Experimental: as §1
10 mg active compound are dissolve in 0.5 mL dimethyl sulfoxide. Serial dilutions are made to obtain the desired rates.
Approximately 20 Lucilia cuprina 1st instar larvae are transferred into a test tube containing 1 cm^3 of minced horse meat and 0.5 ml aqueous dilution of test compound. After 48 hrs percentage of larval mortality are recorded. 100% efficacy=all larvae are killed, […].

Musca domestica = assay: Test against Musca domestica; assay type: in vivo; details: Musca domestica, 48 h, read-out: activity (mortality)
Experimental: as §1
To produce a suitable preparation of active compound, 10 mg of active compound are dissolved in 0.5 ml solvent, and the concentrate is diluted with water to the desired concentration. Prior to the assay, a piece of kitchen sponge is soaked with a mixture of sugar and compound solution and placed into a container. 10 adults (Musca domestica) are placed into the container and closed with a perforated lid. After 2 days mortality in % is determined. 100% means that all the flies have been killed; 0% means that none of the flies have been killed.

[10] = tested on: adult engorged female Boophilus microplus ticks; assay: Test against Boophilus microplus (dip); assay type: in vivo; details: Rhipicephalus microplus, 168 h, read-out: activity (mortality)
Experimental: as §1
To produce a suitable preparation of active compound, 10 mg of active compound are dissolved in 0.5 ml solvent, and the concentrate is diluted with water to the desired concentration. Eight to ten adult engorged female Boophilus microplus ticks are placed in perforated plastic beakers and immersed in aqueous compound solution for one minute. Ticks are transferred to a filter paper in a plastic tray. Egg deposition of fertile eggs is monitored after. After 7 days mortality in % is determined. 100% means that all the ticks have been killed; 0% means that none of the ticks have been killed.

Thrips palmi = Thrips palmi spray test (THRIPL); assay type: in vivo; details: active compound concentration 20 ppm; after 6 days
Procedure, shortened: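 Cucumber seedlings sprayed with compound formulated in DMF/polyoxyethylene alkyl phenyl ether and diluted in water, ammonium salt ± penetration enhancer at 1000 ppm added if needed. About 100 T. palmi eggs attached, plants held caged at 100% humidity, 23 °C. Percent activity scored from feeding damage after 6 days, 100 = no damage, 0 = as untreated.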

[11] = active compound concentration 20 ppm

CCC(=O)NCc1cc(F)c(N2CCC(c3cc(Cl)cc(Cl)c3)(C(F)(F)F)C2O)nc1Cl (stereo not drawn) [A3-356]
insecticidal activity [1, 11]: 100%
activity (mortality) [2]: 100%
activity (mortality) [3]: 100%
activity (mortality) [4]: 100%
logP ([5]; HPLC on reversed phase columns): 3.86

Cc1cc(N2CCC(c3cc(Cl)cc(Cl)c3)(C(F)(F)F)C2O)ccc1CNC(=O)CC(F)(F)F (mixture of isomers) [A1-79]
activity (mortality) [2]: 100%
activity (mortality) [3]: 83%
activity (mortality) [4]: 90%
log P [5]: 4.09

Cc1cc(N2CCC(c3cc(Cl)cc(Cl)c3)(C(F)(F)F)C2O)ccc1CNC(=O)C1CC1 (mixture of isomers) [A1-77]
activity (mortality) [2]: 100%
activity (mortality) [3]: 100%
log P [5]: 3.91

O=C(NCc1cc(F)c(N2CCC(c3cc(Cl)cc(Cl)c3)(C(F)(F)F)C2O)nc1Cl)C1CC1 (stereo not drawn) [A3-359]
activity (mortality) [2]: 100%
activity (mortality) [3]: 100%
activity (mortality) [4]: 100%

O=C(NCc1ccc(N2CCC(c3cc(C(F)(F)F)cc(C(F)(F)F)c3)(C(F)(F)F)C2O)cc1Cl)C1CC1 (stereo not drawn) [A1-27, N-(4-{3-[3,5-bis(trifluoromethyl)phenyl]-2-hydroxy-3-(trifluoromethyl)pyrrolidin-1-yl}-2-chlorobenzyl)cyclopropanecarboxamide]
insecticidal activity [6]: 100%
pest or weed control at 20 ppm [7]: 100%
pest or weed control at 20 ppm [1, 11]: 100%
pest or weed control at 20 ppm [8]: 100%
mortality at 100 ppm (Ctenocephalides felis): 100%
mortality at 100 ppm [9]: 100%
mortality at 100 ppm (Musca domestica): 100%

CCC(=O)NCc1ccc(N2CCC(c3cc(Cl)c(Cl)c(Cl)c3)(C(F)(F)F)C2O)nc1C(F)(F)F (stereo not drawn) [A3-13, N-({6-[2-hydroxy-3-(3,4,5-trichlorophenyl)-3-(trifluoromethyl)-pyrrolidin-1-yl]-2-(trifluoromethyl)pyridin-3-yl}methyl)propanamide]
insecticidal activity [6]: 100%
pest or weed control at 20 ppm [7]: 100%
pest or weed control at 20 ppm [1, 11]: 100%
pest or weed control at 20 ppm [8]: 100%
mortality at 20 ppm [10]: 100%
mortality at 100 ppm (Ctenocephalides felis): 100%
mortality at 100 ppm [9]: 100%
mortality at 100 ppm (Musca domestica): 100%

O=C(NCc1cnc(N2CCC(c3cc(C(F)(F)F)cc(C(F)(F)F)c3)(C(F)(F)F)C2O)cc1C(F)(F)F)C1CC1 (stereo not drawn) [A5-27, N-{[6-{3-[3,5-bis(trifluoromethyl)phenyl]-2-hydroxy-3-(trifluoromethyl)pyrrolidin-1-yl}-4-(trifluoromethyl)pyridin-3-yl]methyl}cyclopropanecarboxamide]
pest or weed control at 20 ppm [7]: 100%
pest or weed control at 4 ppm [1]: 100%
pest or weed control at 20 ppm [1, 11]: 100%
pest or weed control at 4 ppm [8]: 100%
pest or weed control at 20 ppm [8]: 100%
insecticidal activity (by feeding damage degree) (Thrips palmi): 90%
mortality at 100 ppm [10]: 100%
mortality at 100 ppm (Ctenocephalides felis): 100%
mortality at 100 ppm [9]: 100%
mortality at 100 ppm (Musca domestica): 100%

O=C(NCc1ccc(N2CCC(c3cc(Cl)cc(Cl)c3F)(C(F)(F)F)C2O)cc1C(F)(F)F)C1CC1 (stereo not drawn) [A1-409, N-{4-[3-(3,5-dichloro-2-fluorophenyl)-2-hydroxy-3-(trifluoromethyl)pyrrolidin-1-yl]-2-(trifluoromethyl)benzyl}cyclopropanecarboxamide]
pest or weed control at 4 ppm ([7]; active compound concentration 4 ppm): 100%
pest or weed control at 4 ppm [1]: 100%
pest or weed control at 4 ppm [8]: 100%
insecticidal activity (by feeding damage degree) (Thrips palmi): 98%
mortality at 100 ppm [10]: 90%
mortality at 100 ppm (Ctenocephalides felis): 100%
mortality at 100 ppm [9]: 100%
mortality at 100 ppm (Musca domestica): 100%
